Results taken from patent publication US10695589B1, “Method and kit for home controlled ovarian stimulation for in vitro fertilization” (priority 2019, dated 2020).
Square brackets hold non-standard residues; d marks the D form. Peptide text beside a SMILES is read from it. d(hArg(Et2)) = CCN=C(NCC)NCCCC[C@@H](N)C(=O)O; hArg(Et2) = CCN=C(NCC)NCCCC[C@H](N)C(=O)O; dPhe(4-Cl) = N[C@H](Cc1ccc(Cl)cc1)C(=O)O; d2Nal = N[C@H](Cc1ccc2ccccc2c1)C(=O)O; d3Pal = N[C@H](Cc1cccnc1)C(=O)O

Key:
[1] = test system: Luteinizing hormone (LH) blood level; assay: LH blood hormone level in patients on home controlled ovarian hyperstimulation method with vaginal elagolix (Example 2); assay type: in vivo, female patients
Experimental: On day 9 of the menstrual cycle, the patient is directed to orally take 50 to 150 mg, preferably 100 mg, (one, two, or three 50 mg oral tablets) of clomiphene citrate and to either insert vaginally or take orally, depending on the patient's preference, a gonadotropin-releasing hormone (GnRH) antagonist such as elagolix (marketed as ORILISSA®), instead of the expensive injections of ganirelix acetate (GANIRELEX®) or cetrorelix acetate (marketed as CETROTIDE®) used routinely in conventional practices. A dose of 25 mg (⅛^th of a pill) up to 200 mg of elagolix (1 full pill), preferably 25 mg, will be used, with the dose being the same whether inserted vaginally or taken orally. Elagolix is a GnRH antagonist that is conventionally used in the treatment of pain associated with endometriosis in women, not for the treatment of infertility. By blocking the GnRH receptor, elagolix suppresses LH release by the pituitary gland and thus prevents LH surge. Ultimately, elagolix suppresses gonadal steroid production, thereby reducing circulating levels of sex hormones such as progesterone, estradiol, and testosterone. Elagolix is generally an oral medication (oral tablet), however in the present method, elagolix is a tablet taken mainly as a vaginal suppository, but may be taken orally based on the patient's preference. Additionally, the lowest and most preferred dose of elagolix (25 mg) that is used is one-eighth of the daily dosage conventionally administered for the treatment of endometriosis (e.g., 200 mg to 400 mg daily). […] Alternative GnRH receptor antagonists that can be used instead of elagolix include linzagolix and relugolix.
Five female patients were treated with the controlled ovarian hyperstimulation method described herein using the elagolix pill (vaginal route) instead of the conventional Ganirelex/Cetrotide injectables. On day 3 of the patient's menstrual cycle, the patient orally took 100 mg (two 50 mg oral tablets) of clomiphene citrate and 5 mg (two 2.5 mg oral tablets) of letrozole. The patient then took the same oral dosages of clomiphene citrate and letrozole daily on each of days 4-7 of the patient's menstrual cycle. On day 8 of the patient's menstrual cycle, the patient orally took only 100 mg (two 50 mg oral tablets) of clomiphene citrate, and stopped the letrozole. On day 9 of the menstrual cycle, the patient orally took 100 mg (two 50 mg oral tablets) of clomiphene citrate and inserted vaginally a 50 mg tablet of elagolix as a vaginal suppository. On day 10 of the menstrual cycle, the patient orally took only 100 mg (two 50 mg oral tablets) of clomiphene citrate. On day 11 of the menstrual cycle, the patient orally took 100 mg (two 50 mg oral tablets) of clomiphene citrate and inserted vaginally a 50 mg tablet of elagolix as a vaginal suppository. Also, on day 11, the patient took a home ovulation test in the morning (9:00 am) and in the evening (9:00 pm). For the patients whose ovulation tests were not positive, then on days 12 and 13, the patient took 2 doses of leuprorelin as a nasal spray (1:40 dilution in saline) as follows. On day 12, after taking a home ovulation test at 9:00 am, 2 puffs (sprays) of the nasal spray were self-administered by the patient per nostril. After 12 hours of waiting, at 9:00 pm the patient took a home urine ovulation test and then self-administered 2 more puffs (sprays) of the nasal spray per nostril. On day 13, the patient repeated the procedure of day 12. Luteinizing hormone (LH) blood level was 7.0 mIU/mL on day 11 and dropped to 1.0 mIU/mL on day 13.
(§1) Table 2 below provides a comparison of the efficacy of conventional Ganirelex/Cetrotide injectables treatment for IVF in the five representative patients from Example 1 with the home controlled ovarian hyperstimulation method described herein in the five representative patients from Example 2.

[2] = test system: Luteinizing hormone (LH) blood level; assay: LH blood hormone level in patients on conventional GnRH antagonist protocol with Ganirelex/Cetrotide injectables (Example 1); assay type: in vivo, female patients
Experimental: Five female patients were treated with a GnRH antagonist protocol requiring injections of medications.
One patient, patient no. 1, was injected with 150 Units of FSH on days 3 to 12; half a syringe of 150 mcg/0.5 mL of ganirelix acetate on days 11 and 12; and 50 mg of clomiphene citrate on days 3 to 12; and 2.5 mg of letrozole on days 3 to 7. Luteinizing hormone (LH) blood level was 4.3 mIU/mL on day 10 and dropped to 2 mIU/mL on day 12.
A second patient, patient no. 2, was injected with 75 Units of FSH on days 4 to 12 and 150 Units on day 13; half a syringe of 150 mcg/0.5 mL of ganirelix acetate on days 11 to 13; 50 mg of clomiphene citrate on days 10 to 12, and 2.5 mg of letrozole on days 3 to 7. Luteinizing hormone (LH) blood level was 12.0 mIU/mL on day 11 and dropped to 6.3 mIU/mL on day 13.
Three patients, numbered 3 to 5, were injected with 75, 150 and 225 Units of FSH, respectively, on days 4 to 12 and one third a syringe of 150 mcg/0.5 mL of ganirelix acetate on days 11 to 13. Patient no. 3 received 50 mg of clomiphene citrate on days 4 to 12, and 2.5 mg of letrozole on days 4 to 8. Patient no. 4 received 100 mg of clomiphene citrate and 2.5 mg of letrozole on days 4 to 8, and 50 mg of clomiphene citrate on days 9 to 11. Patient no. 5 received no clomiphene citrate or letrozole. Luteinizing hormone (LH) blood level was 12.0, 18.0 and 14.6 mIU/mL, respectively, on day 10 and dropped to 4.9, 16.0 and 14.1 mIU/mL, respectively, on day 12.
as §1

[3] = Example 2 patient 4, 50 mg elagolix vaginal suppository on days 9 and 11
[4] = Example 2 patient 5, 50 mg elagolix vaginal suppository on days 9 and 11

COc1cccc(-c2c(C)n(Cc3c(F)cccc3C(F)(F)F)c(=O)n(C[C@H](NCCCC(=O)O)c3ccccc3)c2=O)c1F [elagolix]
LH blood hormone level BEFORE medication intake ([1]; Example 2 patient 1, day 11, 50 mg elagolix tablet as vaginal suppository on days 9 and 11, clomiphene citrate 100 mg days 3-11, letrozole 5 mg days 3-7): 7.0 mIU/mL
LH blood hormone level AFTER medication intake ([1]; Example 2 patient 1, day 13, 50 mg elagolix vaginal suppository on days 9 and 11): 1.0 mIU/mL
LH blood hormone level AFTER medication intake ([1]; Example 2 patient 2, 50 mg elagolix vaginal suppository on days 9 and 11): 5.7 mIU/mL
LH blood hormone level AFTER medication intake ([1]; Example 2 patient 3, 50 mg elagolix vaginal suppository on days 9 and 11): 3.2 mIU/mL
LH blood hormone level AFTER medication intake [1, 3]: 1.7 mIU/mL
LH blood hormone level BEFORE medication intake [1, 3]: 8.2 mIU/mL
LH blood hormone level AFTER medication intake [1, 4]: 0.8 mIU/mL
LH blood hormone level BEFORE medication intake [1, 4]: 7 mIU/mL
GnRH antagonist effect in the patients ([1]; lower dose of elagolix taken as a vaginal suppository instead of orally): effective GnRH antagonist

CCN=C(NCC)NCCCC[C@H](NC(=O)[C@H](CC(C)C)NC(=O)[C@@H](CCCCNC(=NCC)NCC)NC(=O)[C@H](Cc1ccc(O)cc1)NC(=O)[C@H](CO)NC(=O)[C@@H](Cc1cccnc1)NC(=O)[C@@H](Cc1ccc(Cl)cc1)NC(=O)[C@@H](Cc1ccc2ccccc2c1)NC(C)=O)C(=O)N1CCC[C@H]1C(=O)N[C@H](C)C(N)=O [Ganirelex, ganirelix acetate] (Ac-[d2Nal][dPhe(4-Cl)][d3Pal]SY[d(hArg(Et2))]L[hArg(Et2)]P[dA]-NH2)
LH blood hormone level BEFORE medication intake ([2]; Example 1 patient 1, day 10, half a syringe of 150 mcg/0.5 mL ganirelix acetate on days 11 and 12, FSH 150 Units days 3-12, clomiphene citrate 50 mg days 3-12, letrozole 2.5 mg days 3-7): 4.3 mIU/mL
% Drop in blood LH hormone level ([2]; Example 1 patient 1, day 10 to day 12): 53.5%
% Drop in blood LH hormone level ([2]; Example 1 patient 1, day 10 to day 12, listed as Conventional Ganielex/Cetrotide Injectables): 53.5%
LH blood hormone level AFTER medication intake ([2]; Example 1 patient 1, day 12, half a syringe ganirelix acetate on days 11 and 12): 2 mIU/mL
LH blood hormone level AFTER medication intake ([2]; Example 1 patient 1, day 12, half a syringe ganirelix acetate on days 11 and 12, listed as Conventional Ganielex/Cetrotide Injectables): 2.0 mIU/mL
LH blood hormone level BEFORE medication intake ([2]; Example 1 patient 2, day 11, half a syringe of 150 mcg/0.5 mL ganirelix acetate on days 11 to 13, FSH 75 Units days 4-12 and 150 Units day 13, clomiphene citrate 50 mg days 10-12, letrozole 2.5 mg days 3-7): 12.0 mIU/mL
% Drop in blood LH hormone level ([2]; Example 1 patient 2, day 11 to day 13): 47.5%
% Drop in blood LH hormone level ([2]; Example 1 patient 2, day 11 to day 13, listed as Conventional Ganielex/Cetrotide Injectables): 47.5%
LH blood hormone level AFTER medication intake ([2]; Example 1 patient 2, day 13, half a syringe ganirelix acetate on days 11 to 13): 6.3 mIU/mL
LH blood hormone level BEFORE medication intake ([2]; Example 1 patient 3, day 10, one third a syringe of 150 mcg/0.5 mL ganirelix acetate on days 11 to 13, FSH 75 Units days 4-12, clomiphene citrate 50 mg days 4-12, letrozole 2.5 mg days 4-8): 12.0 mIU/mL
% Drop in blood LH hormone level ([2]; Example 1 patient 3, day 10 to day 12): 59.25%
% Drop in blood LH hormone level ([2]; Example 1 patient 3, day 10 to day 12, listed as Conventional Ganielex/Cetrotide Injectables): 59.2%
LH blood hormone level AFTER medication intake ([2]; Example 1 patient 3, day 12, one third a syringe ganirelix acetate on days 11 to 13): 4.9 mIU/mL
LH blood hormone level BEFORE medication intake ([2]; Example 1 patient 4, day 10, one third a syringe of 150 mcg/0.5 mL ganirelix acetate on days 11 to 13, FSH 150 Units days 4-12, clomiphene citrate 100 mg and letrozole 2.5 mg days 4-8, clomiphene citrate 50 mg days 9-11): 18.0 mIU/mL
% Drop in blood LH hormone level ([2]; Example 1 patient 4, day 10 to day 12): 11.1%
% Drop in blood LH hormone level ([2]; Example 1 patient 4, day 10 to day 12, listed as Conventional Ganielex/Cetrotide Injectables): 11.1%
LH blood hormone level AFTER medication intake ([2]; Example 1 patient 4, day 12, one third a syringe ganirelix acetate on days 11 to 13): 16.0 mIU/mL
LH blood hormone level BEFORE medication intake ([2]; Example 1 patient 5, day 10, one third a syringe of 150 mcg/0.5 mL ganirelix acetate on days 11 to 13, FSH 225 Units days 4-12, no clomiphene citrate or letrozole): 14.6 mIU/mL
% Drop in blood LH hormone level ([2]; Example 1 patient 5, day 10 to day 12): 3.4%
% Drop in blood LH hormone level ([2]; Example 1 patient 5, day 10 to day 12, listed as Conventional Ganielex/Cetrotide Injectables): 3.4%
LH blood hormone level AFTER medication intake ([2]; Example 1 patient 5, day 12, one third a syringe ganirelix acetate on days 11 to 13): 14.1 mIU/mL
